In ChEMBL document CHEMBL5137017, “Identification of NVP-CLR457 as an Orally Bioavailable Non-CNS-Penetrant pan-Class IA Phosphoinositol-3-Kinase Inhibitor” (J Med Chem, 2022):
pIC50: −log10 of the molar value. In brackets after ≈: the same amount, converted by molar mass.

Tests used:
[1] = Drug concentration in OF1 mouse blood at 1 mg/kg, iv measured at 1 hr post dose by LC-MS/MS analysis; type: ADME, organism-based; details: whole blood, read-out: Ct
[2] = molecular target: T1, Phosphatidylinositol 4,5-bisphosphate 3-kinase catalytic subunit delta isoform (Homo sapiens, UniProt O00329); experiment: Inhibition of PI3Kdelta (unknown origin) using phosphatidylinositol as substrate measured for 15 to 60 mins by TR-FRET based Adapta universal kinase assay
T1 sequence (O00329 whole entry): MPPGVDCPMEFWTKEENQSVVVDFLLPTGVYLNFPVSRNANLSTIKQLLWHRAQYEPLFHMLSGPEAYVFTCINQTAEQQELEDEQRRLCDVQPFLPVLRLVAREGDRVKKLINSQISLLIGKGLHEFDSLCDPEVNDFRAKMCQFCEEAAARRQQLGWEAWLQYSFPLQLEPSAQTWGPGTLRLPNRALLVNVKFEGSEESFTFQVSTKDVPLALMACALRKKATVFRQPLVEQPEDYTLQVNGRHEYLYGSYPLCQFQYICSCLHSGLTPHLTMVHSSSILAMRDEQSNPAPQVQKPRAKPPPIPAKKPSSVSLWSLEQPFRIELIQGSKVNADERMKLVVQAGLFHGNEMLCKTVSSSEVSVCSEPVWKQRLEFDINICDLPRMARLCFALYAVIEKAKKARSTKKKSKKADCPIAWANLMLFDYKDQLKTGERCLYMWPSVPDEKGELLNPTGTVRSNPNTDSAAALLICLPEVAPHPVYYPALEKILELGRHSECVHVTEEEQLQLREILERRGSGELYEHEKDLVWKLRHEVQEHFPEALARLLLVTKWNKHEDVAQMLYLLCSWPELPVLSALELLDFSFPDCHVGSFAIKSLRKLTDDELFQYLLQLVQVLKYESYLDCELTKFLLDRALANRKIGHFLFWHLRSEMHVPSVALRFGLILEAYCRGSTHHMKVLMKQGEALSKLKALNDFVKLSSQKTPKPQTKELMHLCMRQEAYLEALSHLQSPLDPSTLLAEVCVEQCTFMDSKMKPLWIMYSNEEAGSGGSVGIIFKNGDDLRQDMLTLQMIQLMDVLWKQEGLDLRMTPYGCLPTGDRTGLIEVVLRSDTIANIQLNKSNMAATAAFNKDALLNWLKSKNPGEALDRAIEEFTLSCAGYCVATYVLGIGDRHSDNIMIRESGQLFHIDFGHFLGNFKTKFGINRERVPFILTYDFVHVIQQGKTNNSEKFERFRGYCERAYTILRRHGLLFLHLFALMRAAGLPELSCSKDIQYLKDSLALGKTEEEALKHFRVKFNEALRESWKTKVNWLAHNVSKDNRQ

[3] = Dose normalized AUC(0 to Tlast) in athymic nude mouse xenografted with rat Rat1 cells expressing myr-p110alpha at 40 mg/kg, po measured after 8 days by LC-MS/MS analysis; type: ADME, organism-based; details: in vivo, 192 h, time 8 day
[4] = Brain to blood ratio in OF1 mouse at 1 mg/kg, iv measured at 1 hr post dose by LC-MS/MS analysis; type: ADME, organism-based; details: brain and blood, read-out: BBR
[5] = Plasma protein binding in OF1 mouse plasma at 10 mg/kg,po or 3 mg/kg,iv measured after 4 hrs by rapid equilibrium dialysis method; type: ADME, organism-based; details: read-out: PPB (converted)
[6] = Aqueous solubility of compound in buffer at pH 7.4 by HPLC analysis; type: physicochemical
[7] = Effect on blood glucose level in athymic nude mouse xenografted with rat Rat1 cells expressing myr-p110alpha at 20 mg/kg, po bid measured upto 14 hrs by glucometer analysis; type: toxicity, organism-based; details: in vivo
[8] = Tmax in Sprague-Dawley rat at 3 mg/kg, po measured upto 24 hrs by LC-MS/MS analysis; type: ADME, organism-based; details: in vivo
[9] = Inhibition of wild type PI3K in human HCC1806 cells assessed as reduction in phosphorylation of AKT at Ser473 residue by Western blot analysis; type: cell-based
[10] = Dose normalized AUC(0 to Tlast) in athymic nude mouse xenografted with rat Rat1 cells expressing myr-p110alpha at 3 mg/kg, po measured after 8 days by LC-MS/MS analysis; type: ADME, organism-based; details: in vivo, 192 h, time 8 day
[11] = Inhibition of PI3K PTEN mutant in human HCC1937 cells assessed as reduction in phosphorylation of AKT at Ser473 residue by Western blot analysis; type: cell-based
[12] = 1-octanol, logP of the compound at pH 7.4; type: physicochemical
[13] = Inhibition of wild type PI3K in human HCC1143 cells assessed as reduction in phosphorylation of AKT at Ser473 residue by Western blot analysis; type: cell-based
[14] = Lipophilicity, logD of compound at pH 6.5; type: physicochemical; details: buffer
[15] = Drug concentration in OF1 mouse blood at 1 mg/kg, iv measured at 5 mins post dose by LC-MS/MS analysis; type: ADME, organism-based; details: whole blood, read-out: Ct
[16] = AUCinfinity in Beagle dog at 5.4 mg/kg, po measured upto 24 hrs using PVP-ASD form of sample by LC-MS/MS analysis; type: ADME, organism-based, Canis lupus familiaris; design: time < 24 hrs, dose 5.4 mg/kg, route po; details: in vivo
Rat1 = experiment: Antitumor activity at rat Rat1 cells expressing myr-p110alpha xenografted in athymic nude mouse assessed as T/C ratio at 40 mg/kg, po bid measured after 15 to 24 days; type: functional; details: time 15-24 day
[17] = Toxicity in athymic nude mouse xenografted with rat Rat1 cells expressing myr-p110delta assessed as drug tolerance at 20 mg/kg, po bid measured for 7 to 15 days; type: organism-based; details: in vivo, time 7-15 day
[18] = Clast in athymic nude mouse xenografted with rat Rat1 cells expressing myr-p110alpha at 10 mg/kg, po measured after 8 days by LC-MS/MS analysis; type: ADME, organism-based; details: in vivo, time 8 day, read-out: Clast
[19] = Solubility of compound in FaSSIF at pH 6.5 measured upto 120 mins by HPLC analysis; type: physicochemical
cells = details: Homo sapiens, U-87 MG, 16 h
[20] = Cmax in athymic nude mouse xenografted with rat Rat1 cells expressing myr-p110alpha at 3 mg/kg, po measured after 8 days by LC-MS/MS analysis; type: ADME, organism-based; design: time 8 day, dose 3 mg/kg, route po; details: in vivo
[21] = Dose normalized AUC in beagle dog at 0.3 mg/kg, po measured upto 24 hrs by LC-MS/MS analysis; type: ADME, organism-based, Canis lupus familiaris; details: in vivo
[22] = Tmax in OF1 mouse at 10 mg/kg,po or 3 mg/kg,iv measured upto 24 hrs by LC-MS/MS analysis; type: ADME, organism-based; details: in vivo
[23] = Toxicity in athymic nude mouse xenografted with rat Rat1 cells expressing myr-p110alpha assessed as decrease in body weight at 40 mg/kg, po bid measured after 9 days; type: organism-based; details: in vivo, 216 h, time 9 day
[24] = In vivo Inhibition of AKT phosphorylation at Ser473 residue in plasma of athymic nude mouse xenografted with rat Rat1 cells expressing myr-p110alpha; type: functional, organism-based

C[C@H]1OC(=O)N(c2nc(-c3cnc(N)nc3C(F)(F)F)cc(N3CCOCC3)n2)[C@H]1CO
concentration at 1 h [1]: 630 nM | pIC50 [2]: 8.08 | AUC/dose [3]: 1.35 µM·h | Kp at 1 h [4]: 0.05 | fraction unbound at 4 h [5]: 0.24 | solubility [6]: 26 µM (≈ 11.8 µg/mL) | Activity [7]: Non-Toxic | Tmax [8]: 30 min | pIC50 [9]: 6.69 | AUC/dose [10]: 1.82 µM·h | pIC50 [11]: 6.60 | logD [12]: 2 | pIC50 [13]: 7.59 | logD [14]: 2 | concentration at 5 min [15]: 3040 nM | AUC(0-inf) [16]: 152 µM·h | T/C (Rat1): -0.86 | Activity [17]: Toxic | concentration at 192 h [18]: 140 nM | solubility at 2 h [19]: 31 µM (≈ 14.1 µg/mL) | pIC50 (cells): 7.00 | Cmax [20]: 1480 nM | AUC/dose [21]: 12970 nM·h | Tmax [22]: 30 min | Activity [23]: Toxic | IC80 [24]: 800 nM | pIC50 ([24]; Mus musculus): 6.70
